# Earlier results, collected in patent publication US8048872B2, “Treatment of hyperproliferative diseases with vinca alkaloid N-oxide and analogs” (Stat of Oregon Acting by and Through The Oregon State Board …, priority 2006, dated 2011).
# Like-named read-outs stand apart in the source and are kept apart here.
# Details: cited from earlier work; for patients developing pneumonia: refractory chronic lymphocytic leukemia
# [1] = melanoma, 200 mg/m^2/d PO days 1-5, every 28 days, Grade III-IV
# [2] = melanoma, 200 mg/m^2/d PO days 1-5, every 28 days
# [3] = non-Hodgkin's lymphoma, 9 mcg/kg/d IV days 1-5, every 21 days
# [4] = non-Hodgkin's lymphoma, 9 or 18 mcg/kg/d IV days 1-5, every 21 days, Grade III-IV
# [5] = non-Hodgkin's lymphoma, 18 mcg/kg/d IV days 1-5, every 21 days
molecule,measurement,setting,value
Nc1nc(Cl)nc2c1ncn2[C@H]1C[C@H](O)[C@@H](CO)O1 [Cladribine],Anemia Grade III-IV,Grade III-IV,22%
same,Documented Infection,Grade III-IV,Infections 13%
same,Leukopenia/Neutropenia Toxicity,Grade III-IV,Grade III-IV 87%
same,Neutropenic Fever,Grade III-IV,Neutropenic Fever 42%
same,Thrombocytopenia,Grade III-IV,Thrombocytopenia 20%
Cn1nnc2c(C(N)=O)ncn2c1=O [Temozolomide],Anemia Grade III-IV,Grade III-IV,Anemia Grade III-IV 1%
same,Asthenia,Grade III-IV,Asthenia 6%
same,Fatigue,Grade III-IV,Fatigue 5%
same,Fever,Grade III-IV,Fever 2%
same,Headache,Grade III-IV,Headache 6%
same,Nausea,Grade III-IV,Nausea 10%
same,Thrombocytopenia,Grade III-IV,Thrombocytopenia 6%
same,Vomiting,Grade III-IV,Vomiting 6%
same,Leukopenia,grade not given,Leukopenia 2%
same,Neutropenia,grade not given,Neutropenia 2%
same,Fever,[1],Fever 2%
same,Headache,[1],Headache 6%
same,Thrombocytopenia,[1],Thrombocytopenia 7%
same,Vomiting,[1],Vomiting 5%
same,Anemia Grade III-IV,[2],Anemia Grade III-IV 2%
same,Asthenia (Grade III),[2],Asthenia (Grade III) 3%
same,Constipation (Grade III),[2],(Grade III) 3%
same,Fatigue (Grade III),[2],Fatigue (Grade III) 3%
same,Nausea (Grade III),[2],Nausea (Grade III) 4%
same,Neutropenia Grade III,[2],Grade III 1%
same,Neutropenia Grade IV,[2],Grade IV 2%
same,Pain (Grade III),[2],Pain (Grade III) 7%
O=C1CCC(N2C(=O)c3ccccc3C2=O)C(=O)N1 (centres unmarked) [Thalidomide],Anemia Grade III-IV,"human, in vivo",3.6%
same,Thrombocytopenia,"human, in vivo",Thrombocytopenia 3.6%
O=c1[nH]cc(F)c(=O)[nH]1 [5-Fluorouracil],Diarrhea,"human, in vivo, iv",Diarrhea* 22%
same,Hand-Foot Syndrome,"human, in vivo, iv",Syndrome* 14%
same,Leukopenia/Neutropenia Toxicity,"human, in vivo, iv",Grade III-IV 0%
same,Stomatitis,"human, in vivo, iv",Stomatitis* 31%
O=NN(CCCl)C(=O)NCCCl [BCNU (carmustine)],Nausea/Vomiting,Grade III-IV,Nausea/Vomiting 5%
same,Thrombocytopenia,Grade III-IV,Thrombocytopenia 21%
same,Leukopenia,Grade III,Grade III 4%
same,Leukopenia,Grade IV,Grade IV 1%
CN(C)c1nc(N(C)C)nc(N(C)C)n1 [Altretamine],Anemia Grade III-IV,"human, in vivo, iv",Anemia Grade III-IV 2%
same,Fatigue,"human, in vivo, iv",Fatigue 9%
same,Nausea,"human, in vivo, iv",Nausea 14%
same,Neurologic,"human, in vivo, iv",Neurologic 2%
same,Vomiting,"human, in vivo, iv",Vomiting 12%
CC(=O)O[C@@]12CO[C@@H]1C[C@H](O)[C@@]1(C)C(=O)[C@H](O)C3=C(C)[C@@H](OC(=O)[C@H](O)[C@@H](NC(=O)OC(C)(C)C)c4ccccc4)C[C@@](O)([C@@H](OC(=O)c4ccccc4)[C@H]21)C3(C)C [Docetaxel],Alopecia,Grade III-IV,Alopecia 13%
same,Asthenia,Grade III-IV,Asthenia 16%
same,Diarrhea,Grade III-IV,Diarrhea 8%
same,Fatigue/Asthenia,Grade III-IV,Fatigue/Asthenia 10%
same,Febrile Neutropenia,Grade III-IV,Febrile Neutropenia 33%
same,Hypersensitivity Reaction,Grade III-IV,Reactions 3%
same,Leukopenia/Neutropenia Toxicity,Grade III-IV,Grade III-IV 93%
same,Nausea,Grade III-IV,Nausea 5%
same,Nausea/Emesis,Grade III-IV,Nausea/Emesis 10%
same,Neuropathy,Grade III-IV,Neuropathy 3%
same,Neurosensory,Grade III-IV,Neurosensory 5%
same,Neutropenic Fever,Grade III-IV,Neutropenic Fever 9%
same,Severe Fluid Retention,Grade III-IV,8%
same,Stomatitis,Grade III-IV,Stomatitis 9%
same,Thrombocytopenia,Grade III-IV,Thrombocytopenia 4%
same,Vomiting,Grade III-IV,Vomiting 3%
same,Granulocytopenia,Grade III,Grade III 6%
same,Leukopenia,Grade III,Grade III 8%
same,Thrombocytopenia,Grade III,(Grade III) 6%
same,Granulocytopenia,Grade IV,Grade IV 72%
same,Neutropenic Infection,"human, in vivo, iv",(Grade III-IV) 11%
Arsenic trioxide,Anemia Grade III-IV,Grade III-IV,Anemia Grade III-IV 5%
same,Arthralgia/Myalgia,Grade III-IV,Arthralgia/Mylagia 13%
same,Convulsions,Grade III-IV,Convulsions 5%
same,Disseminated Intravascular Coagulation,Grade III-IV,8%
same,Dyspnea,Grade III-IV,Dyspnea 10%
same,Febrile Neutropenia,Grade III-IV,Febrile Neutropenia 8%
same,Fever,Grade III-IV,Fever 5%
same,Hyperglycemia,Grade III-IV,Hyperglycemia 13%
same,Hypokalemia,Grade III-IV,Hypokalemia 13%
same,Hypomagnesemia,Grade III-IV,Hypomagnesemia 13%
same,Hypoxia,Grade III-IV,Hypoxia 10%
same,Leukocytosis,Grade III-IV,Leukocytosis 3%
same,Neutropenia,Grade III-IV,10%
same,Paresthesias,Grade III-IV,Paresthesias 5%
same,Sepsis,Grade III-IV,Sepsis 5%
same,Thrombocytopenia,Grade III-IV,Thrombocytopenia 12%
N.N.[Cl][Pt][Cl] [Cisplatin],Anemia Grade III-IV,Grade III-IV,11%
same,Cardiovascular,Grade III-IV,Cardiovascular 2%
same,Leukopenia,Grade III-IV,Grade III-IV 7%
same,Neurologic,Grade III-IV,Neurologic 11%
same,Neutropenic Fever,Grade III-IV,Neutropenic Fever <1%
same,Renal,Grade III-IV,Renal 4%
same,Leukopenia,Grade III,Grade III 18%
same,Leukopenia,Grade IV,Grade IV 3%
same,Hearing Loss (clinical),"human, in vivo",12%
CN(C)/N=N/c1[nH]cnc1C(N)=O [Dacarbazine],Anemia Grade III-IV,"human, in vivo, iv",Anemia Grade III-IV 6%
same,Anemia Grade IV,"human, in vivo, iv",Anemia Grade IV 1%
same,Asthenia (Grade III),"human, in vivo, iv",Asthenia (Grade III) 1%
same,Constipation (Grade III),"human, in vivo, iv",(Grade III) 3%
same,Dyspnea,"human, in vivo, iv",Dyspnea 1%
same,Fatigue (Grade III),"human, in vivo, iv",Fatigue (Grade III) 2%
same,Fever (Grade III),"human, in vivo, iv",Fever (Grade III) 2%
same,Headache (Grade III),"human, in vivo, iv",Headache (Grade III) 1%
same,Leukopenia without neutropenia Grade III,"human, in vivo, iv",Grade III 1%
same,Nausea (Grade III),"human, in vivo, iv",Nausea (Grade III) 4%
same,Nausea/Vomiting,"human, in vivo, iv",Nausea/Vomiting 5%
same,Pain (Grade III),"human, in vivo, iv",Pain (Grade III) 13%
same,Somnolence (Grade III),"human, in vivo, iv",(Grade III) 1%
same,Vomiting (Grade III),"human, in vivo, iv",Vomiting (Grade III) 4%
CC[C@@]1(O)C(=O)OCc2c1cc1n(c2=O)Cc2cc3c(CN(C)C)c(O)ccc3nc2-1 [Topotecan],Anorexia,"human, in vivo, iv",Anorexia 1%
same,Diarrhea,"human, in vivo, iv",Diarrhea 1%
same,Fatigue,"human, in vivo, iv",Fatigue 5%
same,Neutropenic Sepsis,"human, in vivo, iv",Neutropenic Sepsis 5%
same,Sepsis,"human, in vivo, iv",Sepsis 9%
same,Severe Bleed,"human, in vivo, iv",Severe Bleed <1%
same,Stomatitis,"human, in vivo, iv",Stomatitis 2%
same,Leukopenia/Neutropenia Toxicity,"human, in vivo",Grade III 15%
CCCCCOC(=O)Nc1nc(=O)n([C@@H]2O[C@H](C)[C@@H](O)[C@H]2O)cc1F [Capecitabine],Dehydration,"human, in vivo, iv",Dehydration 4%
same,Fatigue,"human, in vivo, iv",Fatigue 7%
same,Hyperbilirubinemia,"human, in vivo, iv",17.3%
same,Hyperglycemia,"human, in vivo, iv",Hyperglycemia 8.7%
same,Leukopenia/Neutropenia Toxicity,"human, in vivo, iv",Grade III-IV 3%
same,Nausea,"human, in vivo, iv",Nausea 4%
same,Stomatitis,"human, in vivo, iv",Stomatitis 3%
same,Vomiting,"human, in vivo, iv",Vomiting 4%
same,Leukopenia,"human, in vivo",Grade III 0.3%
CCC1=C[C@@H]2CN(C1)Cc1c([nH]c3ccccc13)[C@@](C(=O)OC)(c1cc3c(cc1OC)N(C)[C@H]1[C@@](O)(C(=O)OC)[C@H](OC(C)=O)[C@]4(CC)C=CCN5CC[C@]31[C@@H]54)C2 [Vinorelbine],Anemia Grade III-IV,"human, in vivo, iv",Anemia Grade III-IV 5%
same,Constipation,"human, in vivo, iv",Constipation 3%
same,Diarrhea,"human, in vivo, iv",4%
same,Neurologic,"human, in vivo, iv",Neurologic 9%
same,Neuropathy,"human, in vivo, iv",Neuropathy 1%
same,Neutropenic Infection,"human, in vivo, iv",<1%
same,Neutropenic Sepsis,"human, in vivo, iv",Neutropenic Sepsis 3%
same,Stomatitis,"human, in vivo, iv",Stomatitis <1%
same,Thrombocytopenia,"human, in vivo, iv",Thrombocytopenia 1%
CN(Cc1cnc2nc(N)nc(N)c2n1)c1ccc(C(=O)N[C@@H](CCC(=O)O)C(=O)O)cc1 [Methotrexate],Hepatotoxicity (Grade III),"human, in vivo",24.4% (all ages)
same,Hepatotoxicity (Grade IV),"human, in vivo",2.4% (all ages)
CC1=C(/C=C/C(C)=C/C=C/C(C)=C/C(=O)O)C(C)(C)CCC1 [ATRA],Hepatotoxicity,Maintenance Therapy (n = 94),Hepatotoxicity 5.3%
same,Infection,Maintenance Therapy (n = 94),Infection 7.4%
same,Life-Threatening Toxicity,Maintenance Therapy (n = 94),Toxicity 36%
same,Neurotoxicity,Maintenance Therapy (n = 94),Neurotoxicity 11.7%
"Nc1nc(F)nc2c1ncn2[C@@H]1O[C@H](COP(=O)(O)O)[C@@H](O)[C@@H]1O [fludarabine phosphate, reference compound]",patients developing pneumonia,15-25 mg/m^2 daily for five days every 28 days,22%
same,patients developing pneumonia,22-40 mg/m^2 daily for five days every 28 days,16%
Denileukin diftitox,Leukopenia,[3],Leukopenia 6%
same,Neutropenia,[3],Neutropenia 3%
same,Constitutional Symptoms,[4],Symptoms 37-47%
same,Gastrointestinal,[4],Gastrointestinal 20-36%
same,Infection,[4],Infection 33-43%
same,Infusion-Related Events: Back Pain,[4],Back Pain 6-11%
same,Infusion-Related Events: Chest Pain/Tightness,[4],Tightness 9%
same,Infusion-Related Events: Dyspnea,[4],Dyspnea 6-11%
same,Infusion-Related Events: Hypotension,[4],Hypotension 8-11%
same,Infusion-Related Events: Pruritis,[4],Pruritis 6%
same,Infusion-Related Events: Vasodilation,[4],Vasodilation 3%
same,Rash,[4],Rash 19-23%
same,Right Heart Failure,[4],Right Heart Failure 3-6%
same,Thrombotic Events,[4],Thrombotic Events 3-8%
same,Vascular Leak Syndrome,[4],Syndrome 17-25%
same,Leukopenia,[5],Leukopenia 3%
same,Neutropenia,[5],Neutropenia 3%
Liposomal doxorubicin,Anemia Grade III-IV,"human, in vivo, iv",9.8%
same,Leukopenia,"human, in vivo, iv",Leukopenia 36%
same,Mucositis,"human, in vivo, iv",Mucositis 5%
same,Nausea/Vomiting,"human, in vivo, iv",Nausea/Vomiting 15%
same,Neutropenia Grade IV,"human, in vivo, iv",Grade IV 6%
same,Neutropenic Fever,"human, in vivo, iv",Neutropenic Fever 11%
same,Palmar-Plantar Erythrodysesthesia,"human, in vivo, iv",Erythrodysesthesia 29%
same,Peripheral Neuropathy,"human, in vivo, iv",6%
same,Stomatitis,"human, in vivo, iv",Stomatitis 14%
same,Thrombocytopenia,"human, in vivo, iv",Thrombocytopenia 3%
"gemtuzumab: Mylotarg, Wyeth-Ayerst [reference compound]",Anemia Grade III-IV,Grade III-IV,47%
same,Chills,Grade III-IV,Chills 13%
same,Dyspnea,Grade III-IV,Dyspnea 9%
same,Fever,Grade III-IV,Fever 15%
same,Hyperbilirubinemia,Grade III-IV,Hyperbilirubinemia 23%
same,Hyperglycemia,Grade III-IV,Hyperglycemia 12%
same,Leukopenia,Grade III-IV,96%
same,Nausea,Grade III-IV,Nausea 9%
same,Neutropenia,Grade III-IV,98%
same,Neutropenic Fever,Grade III-IV,Neutropenic Fever 7%
same,Pneumonia,Grade III-IV,Pneumonia 7%
same,Sepsis,Grade III-IV,Sepsis 16%
same,Thrombocytopenia,Grade III-IV,Thrombocytopenia 99%
same,patients with grade III or IV pneumonia,"acute myelogenous patients, 9 mg/m^2 IV, two doses 14 days apart",7%
Nc1ccn([C@@H]2O[C@H](CO)[C@@H](O)[C@@H]2O)c(=O)n1 [Cytarabine],CNS Toxicities,"human, in vivo, iv",CNS Toxicities 12%
same,CNS Toxicities,"human, in vivo",(32% with age >60 yrs)
